{"source": "patent US5997933A", "about": "“N-(3,3-dimethylbutyl)-L-aspartyl-D-α-aminoalkanoic acid N-(S)-1-phenyl-1-alkanamide useful as a sweetening agent” (priority 1996, dated 1999)", "key": {"[1]": {"test": "Sweetening potency: taste comparison of aqueous solutions with sucrose control solution (2%, 5% or 10%) by a group of eight experienced people", "type": "in vivo", "source_text": "The sweetening potency of the compounds described in the examples has been evaluated by a group of eight experienced people. For this, the compound, in aqueous solution at varying concentrations, is compared, with respect to taste, to a control solution of sucrose of concentration 2%, 5%, or 10%. The sweetening potency of the test compound compared with sucrose then corresponds to the weight ratio between the compound and sucrose for equal sweetening intensity, i.e. when the sweet tastes of the solution of the test compound and the control solution of sucrose are considered by a majority of people to have the same sweetening intensity."}, "[2]": {"test": "Accelerated ageing in acidic medium (phosphate buffer pH 3, 70° C.), HPLC of product remaining", "type": "physicochemical", "settings": "aqueous solution, read-out: half-life (time corresponding to 50% degradation) (converted)", "procedure": "(§1) The stability of the compounds of the invention and aspartame was measured by determining, using high performance liquid chromatography (HPLC), the amount of product remaining after an accelerated ageing in acidic medium (phosphate buffer at pH 3) or in neutral medium (phosphate buffer at pH 7) and at the temperature of 70° C. The stability of the compound thus tested is evaluated by its half-life (time corresponding to 50% degradation).\nGiven in the annexed FIG. 1 is a comparative diagram of the stability curves of aspartame (curve 1) and of the N--(3,3-dimethylbutyl)-L-aspartyl-D-α-aminobutyric acid N--(S)-1-phenyl-1-propanamide of the present invention (curve 2) obtained during an accelerated ageing by heating their solutions in acidic medium at pH 3 (phosphate buffer) at 70° C."}, "[3]": {"test": "Sweetening comparison with aspartame (equivalent sweetness of solutions / soft drink)", "type": "in vivo", "settings": "for concentration of aqueous solution of equivalent sweetening potency: 20 mg/L compound equivalent to 550 mg/L aspartame; for quantity of sweetening agent in one liter of soft drink for replacement: identical organoleptic qualities", "procedure": "From the fact of their high sweetening potency, another advantage of the compounds of the invention compared to aspartame is to allow, in their application to food products, the use of very low quantities of active agent. It is therefore for example that it is possible to replace, in one liter of soft drink, 550 mg of aspartame by about 20 mg of the N-(3,3-dimethylbutyl)-L-aspartyl-D-α-aminobutyric acid N--(S)-1-phenyl-1-propanamide of the invention, and to therefore reduce by about 27 times the quantities of sweetening agent consumed, always in maintaining the identical organoleptic qualities."}, "[4]": {"test": "Accelerated ageing in neutral medium (phosphate buffer pH 7, 70° C.), HPLC of product remaining", "type": "physicochemical", "settings": "for half-life: phosphate buffer, read-out: half-life (time corresponding to 50% degradation) (converted)", "procedure": "as §1\nGiven in the annexed FIG. 2 is a comparative diagram of the stability curves of aspartame (curve 1) and of the N-(3,3-dimethylbutyl)-L-aspartyl-D-α-aminobutyric acid N--(S)-1-phenyl-1-propanamide of the invention (curve 2) obtained during an accelerated ageing by heating their solutions in neutral media of pH 7 at 70° C."}, "[5]": {"settings": "cited from earlier work"}, "[6]": {"settings": "with respect to a 2% sucrose solution"}}, "note": "Residues, ends and D or L forms follow the SMILES beside them.", "data": [{"smiles": "CC[C@H](NC(=O)[C@H](NC(=O)[C@H](CC(=O)O)NCCC(C)(C)C)C(C)C)c1ccccc1", "note": "[N-(3,3-dimethylbutyl)-L-aspartyl-D-valine N--(S)-1-phenyl-1-propanamide]", "values": [{"measurement": "Sweetening potency", "setting": "[1]; [6]", "value": "about 3,000 times that of sucrose on a weight basis"}, {"measurement": "Sweetening potency", "setting": "[1]; with respect to a 2% sucrose solution, listed as Y = (CH3)2 CH, R\" = (S) CH(C2 H5) C6 H5", "value": "3,000 times that of sucrose on a wei"}]}, {"smiles": "CC[C@H](NC(=O)[C@@H](CC)NC(=O)[C@H](CC(=O)O)NCCC(C)(C)C)c1ccccc1", "note": "[N-(3,3-dimethylbutyl)-L-aspartyl-D-α-aminobutyric acid N--(S)-1-phenyl-1-propanamide]", "values": [{"measurement": "half-life", "setting": "[2]", "value": "~72", "unit": "h"}, {"measurement": "Sweetening potency", "setting": "[1]; by comparison with a 5% solution of sucrose", "value": "~6,000 times that of sucrose on a wei"}, {"measurement": "Sweetening potency", "setting": "[1]; by comparison with a 10% solution of sucrose", "value": "~5,000 times that of sucrose on a wei"}, {"measurement": "Sweetening potency", "setting": "[1]; with respect to a 2% sucrose solution, listed as Y = C2 H5, R\" = (S) CH(C2 H5) C6 H5", "value": "8,000 times that of sucrose on a wei"}, {"measurement": "concentration of aqueous solution of equivalent sweetening potency", "setting": "[3]", "value": 20, "unit": "µg/mL"}, {"measurement": "sweetening potency compared with aspartame", "setting": "[3]; 20 mg/L of compound vs 550 mg/L of aspartame, aqueous solution", "value": "about 27 times"}, {"measurement": "quantity of sweetening agent in one liter of soft drink for replacement", "setting": "[3]", "value": "about 20 mg"}, {"measurement": "reduction of quantity of sweetening agent consumed vs aspartame", "setting": "[3]; soft drink, vs aspartame", "value": "about 27 times"}, {"measurement": "stability compared with aspartame", "setting": "[4]; pH 7, 70° C., ratio to aspartame", "value": "about 1,700 times"}, {"measurement": "half-life", "setting": "[4]; pH 7, 70° C.", "value": "~288", "unit": "h"}]}, {"smiles": "COC(=O)[C@H](Cc1ccccc1)NC(=O)[C@@H](N)CC(=O)O", "note": "[aspartame, L-aspartyl-L-phenylalanine methyl ester, reference compound] (HELM PEPTIDE1{D.F.[CO[*:1]]}$$$$V2.0)", "values": [{"measurement": "half-life", "setting": "[2]", "value": "~24", "unit": "h"}, {"measurement": "concentration of aqueous solution of equivalent sweetening potency", "setting": "[3]", "value": 550, "unit": "µg/mL"}, {"measurement": "quantity of sweetening agent in one liter of soft drink for replacement", "setting": "[3]", "value": 550, "unit": "mg"}, {"measurement": "stability in neutral solution", "setting": "[4]; neutral solution, pH about 7", "value": "very little stable"}, {"measurement": "half-life", "setting": "[4]; pH 7, 70° C.", "value": 0.167, "unit": "h"}, {"measurement": "sweetening potency (prior art)", "setting": "[5]; aspartame, background, sucrose concentration not stated", "value": "120 to 180 times that of sucrose on a weight basis"}]}, {"smiles": "CC[C@@H](NC(=O)[C@H](CC(=O)O)NCCC(C)(C)C)C(=O)N[C@@H](COC)c1ccccc1", "note": "[N-(3,3-dimethylbutyl)-L-aspartyl-D-α-aminobutyric acid N--(S)-1-phenyl-2-methoxy-1-ethanamide]", "values": [{"measurement": "Sweetening potency", "setting": "[1]; [6]", "value": "about 4,000 times that of sucrose on a weight basis"}, {"measurement": "Sweetening potency", "setting": "[1]; with respect to a 2% sucrose solution, listed as Y = C2 H5, R\" = (R) CH(CH2 OCH3)C6 H5", "value": "4,000 times that of sucrose on a wei"}]}, {"smiles": "CC[C@@H](NC(=O)[C@H](CC(=O)O)NCCC(C)(C)C)C(=O)N[C@@H](C)c1ccccc1", "note": "[Y = C2 H5, R\" = (S) CH(CH3)C6 H5]", "values": [{"measurement": "Sweetening potency", "setting": "[1]; [6]", "value": "2,000 times that of sucrose on a wei"}]}, {"smiles": "C[C@@H](NC(=O)[C@H](CC(=O)O)NCCC(C)(C)C)C(=O)NC(C1CC1)C1CC1", "note": "[N-(3,3-dimethylbutyl)-L-aspartyl-N-(dicyclopropylcarbinyl)-D-alaninamide]", "values": [{"measurement": "sweetening potency (prior art, FR 92 13615)", "setting": "[5]; [6]", "value": "2,500 times that of sucrose on a weight basis"}]}, {"smiles": "COC[C@H](NC(=O)[C@H](NC(=O)[C@H](CC(=O)O)NCCC(C)(C)C)C(C)C)c1ccccc1", "note": "[N-(3,3-dimethylbutyl)-L-aspartyl-D-valine N--(S)-1-phenyl-2-methoxy-1-ethanamide]", "values": [{"measurement": "Sweetening potency", "setting": "[1]; [6]", "value": "about 4,000 times that of sucrose on a weight basis"}, {"measurement": "Sweetening potency", "setting": "[1]; with respect to a 2% sucrose solution, listed as Y = (CH3)2 CH, R\" = (R) CH(CH2 OCH3)C6 H5", "value": "4,000 times that of sucrose on a wei"}]}]}
